Patent publication US20140187548A1, “6 SUBSTITUTED IMIDAZOPYRAZINES FOR USE AS MPS-1 AND TKK INHIBITORS IN THE TREATMENT OF HYPERPROLIFERATIVE DISORDERS” (BAYER INTELLECTUAL PROPERTY GMBH, priority 2010, published 2014)
Structures can show the parent of a compound that is named as a salt.

Target: T1, human kinase Mps-1 (Homo sapiens, UniProt P33981)
T1 construct: N-terminally GST-tagged human full length recombinant Mps-1 kinase; GST (N); purchased Invitrogen, Karslruhe, Germany PV4071
T1 sequence (P33981 1-857): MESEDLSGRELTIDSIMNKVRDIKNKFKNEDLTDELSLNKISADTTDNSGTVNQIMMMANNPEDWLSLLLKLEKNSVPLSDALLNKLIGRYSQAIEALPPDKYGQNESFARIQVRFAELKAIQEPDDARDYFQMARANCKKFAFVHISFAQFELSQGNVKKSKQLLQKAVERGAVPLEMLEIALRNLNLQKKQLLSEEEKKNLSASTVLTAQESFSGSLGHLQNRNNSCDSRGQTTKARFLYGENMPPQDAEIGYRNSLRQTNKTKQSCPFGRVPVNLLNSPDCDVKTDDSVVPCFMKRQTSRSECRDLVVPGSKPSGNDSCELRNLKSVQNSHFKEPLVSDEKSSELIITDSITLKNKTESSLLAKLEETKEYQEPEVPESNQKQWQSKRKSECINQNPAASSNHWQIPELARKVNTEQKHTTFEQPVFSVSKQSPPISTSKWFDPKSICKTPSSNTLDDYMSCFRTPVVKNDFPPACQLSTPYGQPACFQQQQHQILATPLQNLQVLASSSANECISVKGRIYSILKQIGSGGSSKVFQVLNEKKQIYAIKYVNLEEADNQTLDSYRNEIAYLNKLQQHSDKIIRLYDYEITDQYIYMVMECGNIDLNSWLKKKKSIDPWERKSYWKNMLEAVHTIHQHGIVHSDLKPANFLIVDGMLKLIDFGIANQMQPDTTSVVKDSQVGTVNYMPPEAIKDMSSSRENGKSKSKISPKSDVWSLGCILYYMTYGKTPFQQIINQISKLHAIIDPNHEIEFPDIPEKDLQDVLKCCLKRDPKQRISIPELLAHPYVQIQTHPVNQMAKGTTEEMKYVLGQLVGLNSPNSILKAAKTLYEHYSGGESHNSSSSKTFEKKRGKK
Test: Mps-1 kinase assay (TR-FRET)
Type: biochemical
Conditions: N-terminally GST-tagged human full length recombinant Mps-1; 10 μM ATP; 1 μM peptide substrate; 15 min pre-incubation; 60 min at 22° C.
Summary of the method: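 N-terminally GST-tagged full-length recombinant human Mps-1, about 1 nM final, phosphorylates a biotinylated peptide. Product detected by TR-FRET from Eu-anti-phospho-Ser/Thr antibody to streptavidin-XLent after 1 h at 22° C.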

Going from N#Cc1cccc(CNc2nc(-c3ccccc3)cn3c(-c4ccc(C(=O)NC5CC5)cc4)cnc23)c1 [Example 2-61, 4-{8-[(3-cyanobenzyl)amino]-6-phenylimidazo[1,2-a]pyrazin-3-yl}-N-cyclopropylbenzamide] to O=C(NC1CC1)c1ccc(-c2cnc3c(NCc4ccsc4)nc(-c4ccccc4)cn23)cc1 [Example 2-74, N-cyclopropyl-4-{6-phenyl-8-[(3-thienylmethyl)amino]imidazo[1,2-a]pyrazin-3-yl}benzamide], the IC50 falls from 12.1 nM to 3.7 nM (3.3-fold).

Compared with O=C(NC1CC1)c1ccc(-c2cnc3c(NCCCF)nc(-c4ccccc4)cn23)cc1 [Example 2-62, N-cyclopropyl-4-{8-[(3-fluoropropyl)amino]-6-phenylimidazo[1,2-a]pyrazin-3-yl}benzamide], NCCCNc1nc(-c2ccccc2)cn2c(-c3ccc(C(=O)NC4CC4)cc3)cnc12 [Example 2-68] is 16-fold higher in IC50: 1.1 nM for the first, 17.4 nM for the second. The first is the more potent here.

Going from O=C(NC1CC1)c1ccc(-c2cnc3c(NCCc4nccs4)nc(-c4ccccc4)cn23)cc1 [Example 2-63, N-cyclopropyl-4-(6-phenyl-8-{[2-(1,3-thiazol-2-yl)ethyl]amino}imidazo[1,2-a]pyrazin-3-yl)benzamide] to NCCNc1nc(-c2ccccc2)cn2c(-c3ccc(C(=O)NC4CC4)cc3)cnc12 [Example 2-69, 4-{8-[(2-Aminoethyl)amino]-6-phenylimidazo[1,2-a]pyrazin-3-yl}-N-cyclopropylbenzamide], the IC50 rises from 5.6 nM to 54.8 nM (9.8-fold). The first is the more potent here.

Going from NS(=O)(=O)CCNc1nc(-c2ccccc2)cn2c(-c3ccc(C(=O)NC4CC4)cc3)cnc12 [Example 2-64, N-cyclopropyl-4-{6-phenyl-8-[(2-sulfamoylethyl)amino]imidazo[1,2-a]pyrazin-3-yl} benzamide] to NCCCNc1nc(-c2ccccc2)cn2c(-c3ccc(C(=O)NC4CC4)cc3)cnc12 [Example 8-1, 4-{8-[(3-Aminopropyl)amino]-6-phenylimidazo[1,2-a]pyrazin-3-yl}-N-cyclopropylbenzamide hydrochloride], the IC50 rises from 1 nM to 21.1 nM (21-fold).

Going from O=C(NC1CC1)c1ccc(-c2cnc3c(NCC4CCCCO4)nc(-c4ccccc4)cn23)cc1 (centres unmarked) [Example 2-65, N-cyclopropyl-4-{6-phenyl-8-[(tetrahydro-2H-pyran-2-ylmethyl)amino]imidazo[1,2-a]pyrazin-3-yl}benzamide] to O=C(NC1CC1)c1ccc(-c2cnc3c(NCC4CCCC4)nc(-c4ccccc4)cn23)cc1 [Example 2-72, 4-{8-[(Cyclopentylmethyl)amino]-6-phenylimidazo[1,2-a]pyrazin-3-yl}-N-cyclopropylbenzamide], the IC50 rises from 1.3 nM to 2.5 nM (1.9-fold). The first is the more potent here.

Compared with O=C(NC1CC1)c1ccc(-c2cnc3c(NCC4CCCCC4)nc(-c4ccccc4)cn23)cc1 [Example 2-66, 4-{8-[(Cyclohexylmethyl)amino]-6-phenylimidazo[1,2-a]pyrazin-3-yl}-N-cyclopropylbenzamide], O=C(NC1CC1)c1ccc(-c2cnc3c(NCC4CCC4)nc(-c4ccccc4)cn23)cc1 [Example 2-73, 4-{8-[(Cyclobutylmethyl)amino]-6-phenylimidazo[1,2-a]pyrazin-3-yl}-N-cyclopropylbenzamide] is 2.7-fold lower in IC50: 6.2 nM for the first, 2.3 nM for the second. The second is the more potent here.

Going from NCCCCNc1nc(-c2ccccc2)cn2c(-c3ccc(C(=O)NC4CC4)cc3)cnc12 [Example 2-67] to NCCCCCNc1nc(-c2ccccc2)cn2c(-c3ccc(C(=O)NC4CC4)cc3)cnc12 [Example 2-79, 4-{8-[(5-Aminopentyl)amino]-6-phenylimidazo[1,2-a]pyrazin-3-yl}-N-cyclopropylbenzamide], the IC50 falls from 7.2 nM to 3.2 nM (2.2-fold). The second is the more potent here.

Going from O=C(NC1CC1)c1ccc(-c2cnc3c(NCCCn4ccnc4)nc(-c4ccccc4)cn23)cc1 [Example 2-71, N-cyclopropyl-4-(8-{[3-(1H-imidazol-1-yl)propyl]amino}-6-phenylimidazo[1,2-a]pyrazin-3-yl)benzamide] to O=C(NC1CC1)c1ccc(-c2cnc3c(NCCCCO)nc(-c4ccccc4)cn23)cc1 [Example 2-78, N-cyclopropyl-4-{8-[(4-hydroxybutyl)amino]-6-phenylimidazo[1,2-a]pyrazin-3-yl}benzamide], the IC50 falls from 4.1 nM to 1.1 nM (3.7-fold). The second is the more potent here.

O=C(NC1CC1)c1ccc(-c2cnc3c(NCc4ccco4)nc(-c4ccccc4)cn23)cc1 [Example 2-75, N-cyclopropyl-4-{8-[(2-furylmethyl)amino]-6-phenylimidazo[1,2-a]pyrazin-3-yl}benzamide] and O=C(NC1CC1)c1ccc(-c2cnc3c(NCc4ccoc4)nc(-c4ccccc4)cn23)cc1 [Example 2-76, N-cyclopropyl-4-{8-[(3-furylmethyl)amino]-6-phenylimidazo[1,2-a]pyrazin-3-yl}benzamide] are within 1.5-fold of each other in IC50: 3.2 nM for the first, 2.8 nM for the second.

O=C(NC1CC1)c1ccc(-c2cnc3c(NCc4cccs4)nc(-c4ccccc4)cn23)cc1 [Example 2-77, N-cyclopropyl-4-{6-phenyl-8-[(2-thienylmethyl)amino]imidazo[1,2-a]pyrazin-3-yl}benzamide] and O=C(NC1CC1)c1ccc(-c2cnc3c(NCC(F)(F)F)nc(-c4ccccc4)cn23)cc1 [Example 2-85, N-cyclopropyl-4-{6-phenyl-8-[(2,2,2-trifluoroethyl)amino]imidazo[1,2-a]pyrazin-3-yl}benzamide] are within 1.5-fold of each other in IC50: 2.5 nM for the first, 2.8 nM for the second.

Compared with O=C(NC1CC1)c1ccc(-c2cnc3c(NCCOCCO)nc(-c4ccccc4)cn23)cc1 [Example 2-80, N-cyclopropyl-4-(8-{[2-(2-hydroxyethoxy)ethyl]amino}-6-phenylimidazo[1,2-a]pyrazin-3-yl)benzamide], O=C(NC1CC1)c1ccc(-c2cnc3c(NCCOCC(F)(F)F)nc(-c4ccccc4)cn23)cc1 [Example 2-88, N-cyclopropyl-4-(6-phenyl-8-{[2-(2,2,2-trifluoroethoxy)ethyl]amino}imidazo[1,2-a]pyrazin-3-yl)benzamide] is 1.7-fold lower in IC50: 6.2 nM for the first, 3.6 nM for the second.

Compared with O=C(NC1CC1)c1ccc(-c2cnc3c(NC[C@@H](O)CO)nc(-c4ccccc4)cn23)cc1 [Example 2-81, N-cyclopropyl-4-(8-{[(2R)-2,3-dihydroxypropyl]amino}-6-phenylimidazo[1,2-a]pyrazin-3-yl)benzamide], O=C(NC1CC1)c1ccc(-c2cnc3c(NC[C@H](O)CO)nc(-c4ccccc4)cn23)cc1 [Example 2-82, N-cyclopropyl-4-(8-{[(2S)-2,3-dihydroxypropyl]amino}-6-phenylimidazo[1,2-a]pyrazin-3-yl)benzamide] is 2.3-fold higher in IC50: 1.9 nM for the first, 4.4 nM for the second. The first is the more potent here.

First: O=C(NC1CC1)c1ccc(-c2cnc3c(NCCSC(F)(F)F)nc(-c4ccccc4)cn23)cc1 [Example 2-83, N-cyclopropyl-4-[6-phenyl-8-({2-[(trifluoromethyl)sulfanyl]ethyl}amino)imidazo[1,2-a]pyrazin-3-yl]benzamide]
Second: NCCCCCCNc1nc(-c2ccccc2)cn2c(-c3ccc(C(=O)NC4CC4)cc3)cnc12 [Example 2-84, 4-{8-[(6-Aminohexyl)amino]-6-phenylimidazo[1,2-a]pyrazin-3-yl}-N-cyclopropylbenzamide]
The IC50 of the first is 3.4-fold higher: 5.4 nM for the first, 1.6 nM for the second. The second is the more potent here.

Compared with CC(C)CNc1nc(-c2ccccc2)c(Cl)n2c(-c3ccc(C(=O)NC4CC4)cc3)cnc12 [Example 3-1, 4-{5-chloro-8-[(2-methylpropyl)amino]-6-phenylimidazo[1,2-a]pyrazin-3-yl}-N-cyclopropylbenzamide], CC(C)CNc1nc(-c2ccccc2)c(Br)n2c(-c3ccc(C(=O)NC4CC4)cc3)cnc12 [Example 4-1, 4-{5-bromo-8-[(2-methylpropyl)amino]-6-phenylimidazo[1,2-a]pyrazin-3-yl}-N-cyclopropylbenzamide] is 2.4-fold higher in IC50: 10.7 nM for the first, 26.2 nM for the second.

Going from CC(C)CNc1nc(-c2ccccc2)c(F)n2c(-c3ccc(C(=O)NC4CC4)cc3)cnc12 [Example 5-1, N-cyclopropyl-4-{5-fluoro-8-[(2-methylpropyl)amino]-6-phenylimidazo[1,2-a]pyrazin-3-yl}benzamide] to CC(C)CNc1nc(-c2ccc(CCO)cc2)cn2c(-c3ccc(C(=O)NC4CC4)cc3)cnc12 [Example 6-1, N-cyclopropyl-4-{6-[4-(2-hydroxyethyl)phenyl]-8-(isobutylamino)imidazo[1,2-a]pyrazin-3-yl}benzamide], the IC50 falls from 67 nM to 1 nM (67-fold).

First: CC(C)CNc1nc(-c2ccc(C3CC3)cc2)cn2c(-c3ccc(C(=O)NC4CC4)cc3)cnc12 [Example 7-1, N-cyclopropyl-4-[6-(4-cyclopropylphenyl)-8-(isobutylamino)imidazo[1,2-a]pyrazin-3-yl]benzamide]
Second: O=C(NC1CC1)c1ccc(-c2cnc3c(NCCCOC[C@@H](O)CO)nc(-c4ccccc4)cn23)cc1 [Example 9-1, N-cyclopropyl-4-{8-[(3-{[(2S)-2,3-dihydroxypropyl]oxy}propyl)amino]-6-phenylimidazo[1,2-a]pyrazin-3-yl}benzamide]
The IC50 of the first is 9.4-fold higher: 31.8 nM for the first, 3.4 nM for the second.
